Data: the supplement of paper PMC10307832

Columns and labels:
Experiment in all cases: relative viability (nuclei count vs DMSO), 5 days (fraction); higher = more cells survive
Dinaciclib + Bortezomib = compound: CCc1cnn2c(NCc3ccc[n+]([O-])c3)cc(N3CCCC[C@H]3CCO)nc12 [Dinaciclib] + CC(C)C[C@H](NC(=O)[C@H](Cc1ccccc1)NC(=O)c1cnccn1)B(O)O [Bortezomib] (partner 0.002 µM)
How it was run: (§1)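 Relative viability equals treated-well nuclei counts divided by vehicle-well nuclei counts. Counts came from 4× images of lung cancer cell lines grown in 1536-well plates for 5 days after pin-tool dosing on the day after seeding. Dosing used one drug alone or a fixed anchor-drug dose plus five library-drug doses (not always all listed) in √10 steps, and values are medians of duplicate plates.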

Dinaciclib + Linsitinib = compound: CCc1cnn2c(NCc3ccc[n+]([O-])c3)cc(N3CCCC[C@H]3CCO)nc12 [Dinaciclib] + C[C@]1(O)C[C@@H](c2nc(-c3ccc4ccc(-c5ccccc5)nc4c3)c3c(N)nccn32)C1 [Linsitinib] (partner 1 µM)
How it was run: as §1

Dinaciclib + Alpelisib = compound: CCc1cnn2c(NCc3ccc[n+]([O-])c3)cc(N3CCCC[C@H]3CCO)nc12 [Dinaciclib] + Cc1nc(NC(=O)N2CCC[C@H]2C(N)=O)sc1-c1ccnc(C(C)(C)C(F)(F)F)c1 [Alpelisib] (partner 2 µM)
How it was run: as §1

Dinaciclib + Crizotinib = compound: CCc1cnn2c(NCc3ccc[n+]([O-])c3)cc(N3CCCC[C@H]3CCO)nc12 [Dinaciclib] + C[C@@H](Oc1cc(-c2cnn(C3CCNCC3)c2)cnc1N)c1c(Cl)ccc(F)c1Cl [Crizotinib] (partner 1 µM)
How it was run: as §1

Dinaciclib + Pictilisib = compound: CCc1cnn2c(NCc3ccc[n+]([O-])c3)cc(N3CCCC[C@H]3CCO)nc12 [Dinaciclib] + CS(=O)(=O)N1CCN(Cc2cc3nc(-c4cccc5[nH]ncc45)nc(N4CCOCC4)c3s2)CC1 [Pictilisib] (partner 1 µM)
How it was run: as §1

Cell Line | relative viability (Dinaciclib + Bortezomib; first compound 0.009487 µM) | relative viability (Dinaciclib + Bortezomib; first compound 0.03 µM) | relative viability (Dinaciclib + Bortezomib; first compound 0.09487 µM) | relative viability (Dinaciclib + Bortezomib; first compound 0.3 µM) | relative viability (Dinaciclib + Linsitinib; first compound 0.009487 µM) | relative viability (Dinaciclib + Linsitinib; first compound 0.03 µM) | relative viability (Dinaciclib + Linsitinib; first compound 0.09487 µM) | relative viability (Dinaciclib + Linsitinib; first compound 0.3 µM) | relative viability (Dinaciclib + Alpelisib; first compound 0.009487 µM) | relative viability (Dinaciclib + Alpelisib; first compound 0.03 µM) | relative viability (Dinaciclib + Alpelisib; first compound 0.09487 µM) | relative viability (Dinaciclib + Alpelisib; first compound 0.3 µM) | relative viability (Dinaciclib + Crizotinib; first compound 0.009487 µM) | relative viability (Dinaciclib + Crizotinib; first compound 0.03 µM) | relative viability (Dinaciclib + Crizotinib; first compound 0.09487 µM) | relative viability (Dinaciclib + Crizotinib; first compound 0.3 µM) | relative viability (Dinaciclib + Pictilisib; first compound 0.009487 µM) | relative viability (Dinaciclib + Pictilisib; first compound 0.03 µM) | relative viability (Dinaciclib + Pictilisib; first compound 0.09487 µM) | relative viability (Dinaciclib + Pictilisib; first compound 0.3 µM)
HCC-78 | 0.61 | 0.169 | 0.133 | 0.122 | 0.556 | 0.348 | 0.116 | 0.14 | 0.298 | 0.202 | 0.115 | 0.118 | 0.352 | 0.181 | 0.108 | 0.137 | 0.197 | 0.226 | 0.105 | 0.11
HCC-366 | 0.779 | 0.0262 | 0.0219 | 0.0175 | 0.543 | 0.0298 | 0.0149 | 0.0167 | 0.366 | 0.0443 | 0.0165 | 0.0153 | 0.358 | 0.0242 | 0.0111 | 0.0131 | 0.196 | 0.0396 | 0.0372 | 0.044
HCC-827 | 0.986 | 0.746 | 0.213 | 0.178 | 0.951 | 0.747 | 0.181 | 0.147 | 0.879 | 0.601 | 0.126 | 0.123 | 0.946 | 0.333 | 0.16 | 0.15 | 0.998 | 0.446 | 0.242 | 0.223
HOP-62 | 0.643 | 0.0795 | 0.0423 | 0.0609 | 1.01 | 0.203 | 0.0716 | 0.0565 | 0.828 | 0.27 | 0.0713 | 0.0692 | 0.841 | 0.236 | 0.0602 | 0.0489 | 0.583 | 0.092 | 0.0651 | 0.0405
IA-LM | 0.72 | 0.0186 | 0.019 | 0.014 | 0.664 | 0.27 | 0.028 | 0.0252 | 0.669 | 0.0488 | 0.0282 | 0.0261 | 0.725 | 0.0572 | 0.0441 | 0.0336 | 0.327 | 0.0323 | 0.0279 | 0.0329
LC-2-ad | 1.05 | 0.0825 | 0.0622 | 0.0691 | 0.745 | 0.0866 | 0.0684 | 0.0797 | 0.811 | 0.0609 | 0.0619 | 0.0681 | 0.441 | 0.119 | 0.109 | 0.116 | 0.305 | 0.071 | 0.0698 | 0.0506
LCLC-97TM1 | 0.0824 | 0.0484 | 0.0476 | 0.0667 | 0.168 | 0.12 | 0.126 | 0.107 | 0.197 | 0.129 | 0.121 | 0.107 | 0.346 | 0.092 | 0.0991 | 0.103 | 0.209 | 0.116 | 0.109 | 0.0963
LCLC-103H | 1.04 | 0.998 | 0.451 | 0.108 | 1.13 | 0.934 | 0.18 | 0.172 | 0.934 | 0.844 | 0.248 | 0.113 | 1.06 | 1.03 | 0.329 | 0.123 | 0.572 | 0.463 | 0.147 | 0.143
LK-2 | – | – | – | – | 0.523 | 0.127 | 0.159 | 0.117 | 0.849 | 0.274 | 0.232 | 0.199 | 0.232 | 0.202 | 0.21 | 0.18 | 0.358 | 0.23 | 0.21 | 0.214
LOU-NH91 | 0.4 | 0.345 | 0.287 | 0.281 | 0.94 | 0.467 | 0.236 | 0.245 | 0.73 | 0.462 | 0.253 | 0.235 | 0.738 | 0.348 | 0.29 | 0.267 | 0.507 | 0.288 | 0.254 | 0.229
LU99A | 0.645 | 0.134 | 0.135 | 0.122 | 0.336 | 0.154 | 0.145 | 0.141 | 0.37 | 0.133 | 0.116 | 0.0993 | 0.315 | 0.131 | 0.125 | 0.122 | 0.283 | 0.134 | 0.109 | 0.122
NCI-H358 | – | – | – | – | 0.552 | 0.149 | 0.185 | 0.176 | 0.61 | 0.14 | 0.161 | 0.183 | 0.373 | 0.0972 | 0.135 | 0.144 | 0.272 | 0.185 | 0.174 | 0.176
NCI-H1395 | – | – | – | – | 1.56 | 0.249 | 0.297 | 0.277 | 0.903 | 0.304 | 0.312 | 0.303 | – | – | – | – | 0.483 | 0.248 | 0.269 | 0.248
NCI-H1650 | 0.172 | 0.178 | 0.158 | 0.142 | – | – | – | – | – | – | – | – | 0.97 | 0.121 | 0.0986 | 0.113 | 0.536 | 0.146 | 0.101 | 0.112
NCI-H1793 | – | – | – | – | 0.818 | 0.187 | 0.119 | 0.128 | 0.468 | 0.188 | 0.163 | 0.15 | – | – | – | – | 0.288 | 0.177 | 0.145 | 0.2
NCI-H1944 | – | – | – | – | 1.36 | 0.613 | 0.192 | 0.225 | 0.904 | 0.221 | 0.152 | 0.166 | 1.14 | 0.143 | 0.136 | 0.126 | 0.4 | 0.172 | 0.168 | 0.177
NCI-H2170 | – | – | – | – | – | – | – | – | 0.646 | 0.166 | 0.162 | 0.198 | 0.86 | 0.188 | 0.157 | 0.181 | 0.27 | 0.151 | 0.163 | 0.196
SK-MES-1 | – | – | – | – | 1.08 | 0.493 | 0.168 | 0.164 | 0.757 | 0.618 | 0.119 | 0.117 | 0.969 | 0.18 | 0.191 | 0.155 | 0.381 | 0.24 | 0.128 | 0.128
